Results reported in patent US20030229113A1, “Keratinocyte growth inhibitors and hydroxamic acid derivatives” (priority 2003, published 2003).
Like-named read-outs stand apart in the source and are kept apart here.

Tested on: solubilizing enzyme of HB-EGF
Assay: Inhibition of TPA-stimulated release of HB-EGF from HT-1080 transfectant expressing HB-EGF/alkaline phosphatase fusion protein
Type: cell-based, human
Details: HT-1080 HB-EGF-AP transfectant, TPA 60 nM for 60 min, AP activity in conditioned medium (OD405)
Experimental: Human fibrosarcoma HT-1080 stable transfectant expressing fusion protein of HB-EGF and human placental alkaline phosphatase (AP) were used for following experiments.
The cultured transfectant was treated with Trypsin-EDTA solution, and suspended in Minimum Essential Medium (without phenol red; supplemented with 10% heat-inactivated fetal calf serum; MEM) at the concentration of 1×10^5 cells/ml. Each 0.2 ml of the cell suspension was dispensed into individual wells of 96 well microplate, and incubated overnight in the CO2 incubator (37° C.). After the incubation, the conditioned medium was removed, and the wells were washed once with 0.2 ml of phosphate buffered saline. The cells were treated with 0.1 ml of compound solution [compound solutions in dimethylsulfoxide (DMSO) were diluted 100 times with MEM] for 30 min at 37° C. Then the compound solutions were removed, and cells were treated with 0.2 ml of TPA solution (120 μM) of stock solution was diluted to 60 nM with MEM) containing same concentration of the compound for 60 min at 37° C. The cells treated same procedure without compound were used as control.
After these treatments, each 0.1 ml of conditioned medium was transferred to individual wells of new 96 well microplate and incubated at 65° C. for 10 min to inactivate endogenous alkaline phosphatase. One hundred microliter of substrate solution (1 mg/ml of p-nitrophenyl phosphate in 0.01% magnesium chloride/1 M diethanolamine) for AP was added to each well and incubated for 120 min at room temperature in the dark. The OD405 of each well was measured with microplate reader. The IC50 values of the compounds were calculated from the concentration-inhibition curves.

| IC50 (read-out: IC50) | SMILES | IC50 |
| --- | --- | --- |
| 1100 nM | C=Cc1ccc(S(=O)(=O)N2Cc3nccnc3CC2C(=O)NO)cc1 (single isomer, unassigned; (+)) [the compound(44), (+)-N-Hydroxy-6-(4-vinylbenzenesulfonyl)-5,6,7,8-tetrahydropyrido[3,4-b]pyrazine-7-carboxamide] | – |
| 100 nM | CNC(=O)C(Cc1ccccc1)NC(=O)C(CC(C)C)C(C)C(=O)NO [the compound f, 4-(N-hydroxyamino)-2 (R)-isobutyl-3-methylsuccinyl-L-phenylalanine-N-methylamide, reference compound] | – |
| 160 nM | O=C(NO)C1Cc2nccnc2CN1S(=O)(=O)c1ccc(OCCF)cc1 (single isomer, unassigned; (+)) [the compound(18), (+)-N-Hydroxy-6-[4-(2-fluoroethoxy)benzenesulfonyl]-5,6,7,8-tetrahydropyrido[3,4-b]pyrazine-7-carboxamide] | – |
| 2200 nM | CC(=O)c1ccc(S(=O)(=O)N2Cc3nccnc3CC2C(=O)NO)cc1 (single isomer, unassigned; (+)) [the compound(42), (+)-N-Hydroxy-6-(4-acetylbenzenesulfonyl)-5,6,7,8-tetrahydropyrido[3,4-b]pyrazine-7-carboxamide] | – |
| 1700 nM | CCCCCCc1ccc(S(=O)(=O)N2Cc3nccnc3CC2C(=O)NO)cc1 (single isomer, unassigned; (+)) [the compound(38), (+)-N-Hydroxy-6-(4-hexylbenzenesulfonyl)-5,6,7,8-tetrahydropyrido[3,4-b]pyrazine-7-carboxamide] | – |
| 1500 nM | CSc1ccc(S(=O)(=O)N2Cc3nccnc3CC2C(=O)NO)cc1 (single isomer, unassigned; (+)) [the compound(35), (+)-N-Hydroxy-6-(4-methylthiobenzenesulfonyl)-5,6,7,8-tetrahydropyrido[3,4-b]pyrazine-7-carboxamide] | – |
| 1800 nM | Nc1ccc(S(=O)(=O)N2Cc3nccnc3CC2C(=O)NO)cc1 (single isomer, unassigned; (+)) [the compound(39), (+)-N-Hydroxy-6-(4-aminobenzenesulfonyl)-5,6,7,8-tetrahydropyrido[3,4-b]pyrazine-7-carboxamide] | – |
| 160 nM | CCOCCCOc1ccc(S(=O)(=O)N2Cc3nccnc3CC2C(=O)NO)cc1 (racemic) [the compound(12), (±)-N-Hydroxy-6-[4-(ethoxypropoxy)benzenesulfonyl]-5,6,7,8-tetrahydropyrido[3,4-b]pyrazine-7-carboxamide] | – |
| 100 nM | CNC(=O)C(Cc1ccccc1)NC(=O)C(C(C)C)C(C)C(=O)NO [the compound e, 4-(N-hydroxyamino)-2 (R)-isopropyl-3-methylsuccinyl-L-phenylalanine-N-methylamide, reference compound] | – |
| 240 nM | COCCCOc1ccc(S(=O)(=O)N2Cc3nccnc3CC2C(=O)NO)cc1 (racemic) [the compound(4), (±)-N-Hydroxy-6-[4-(3-methoxypropoxy)benzenesulfonyl]-5,6,7,8-tetrahydropyrido[3,4-b]pyrazine-7-carboxamide] | – |
| 1800 nM | CS(=O)(=O)CCCOc1ccc(S(=O)(=O)N2Cc3nccnc3CC2C(=O)NO)cc1 (single isomer, unassigned; (+)) [the compound(48), (+)-N-Hydroxy-6-[4-(3-methansulfonylpropoxy)benzenesulfonyl]-5,6,7,8-tetrahydropyrido[3,4-b]pyrazine-7-carboxamide] | – |
| 1900 nM | O=C(NO)C1Cc2nccnc2CN1S(=O)(=O)/C=C/c1ccccc1 (single isomer, unassigned; (+)) [the compound(47), (+)-N-Hydroxy-6-(2-trans-phenylethenesulfonyl)-5,6,7,8-tetrahydropyrido[3,4-b]pyrazine-7-carboxamide] | – |
| 260 nM | CCCCOCCCOc1ccc(S(=O)(=O)N2Cc3nccnc3CC2C(=O)NO)cc1 (single isomer, unassigned; (+)) [the compound(25), (+)-N-Hydroxy-6-[4-(3-buthoxypropoxy)benzenesulfonyl]-5,6,7,8-tetrahydropyrido[3,4-b]pyrazine-7-carboxamide] | – |
| 800 nM | COc1ccc(S(=O)(=O)N2Cc3nccnc3CC2C(=O)NO)cc1 (racemic) [the compound(1), (±)-N-Hydroxy-6-(4-methoxybenzenesulfonyl)-5,6,7,8-tetrahydropyrido[3,4-b]pyrazine-7-carboxamide] | – |
| – | CSCCCOc1ccc(S(=O)(=O)N2Cc3nccnc3CC2C(=O)NO)cc1 (racemic) [the compound(10), (±)-N-Hydroxy-6-[4-(3-methylthiopropoxy)benzenesulfonyl]-5,6,7,8-tetrahydropyrido[3,4-b]pyrazine-7-carboxamide] | 340 nM |
| – | O=C(NO)C1Cc2nccnc2CN1S(=O)(=O)c1ccc(OCCCc2ccccc2)cc1 (single isomer, unassigned; (+)) [the compound(45), (+)-N-Hydroxy-6-[4-(3-phenylpropoxy)benzenesulfonyl]-5,6,7,8-tetrahydropyrido[3,4-b]pyrazine-7-carboxamide] | 630 nM |
| 1000 nM | O=C(NO)C1Cc2nccnc2CN1S(=O)(=O)c1ccc(Oc2ccccc2)cc1 (racemic) [the compound(3), (±)-N-Hydroxy-6-(4-phenoxybenzenesulfonyl)-5,6,7,8-tetrahydropyrido[3,4-b]pyrazine-7-carboxamide] | – |
| 1000 nM | CCOC(=O)COc1ccc(S(=O)(=O)N2Cc3nccnc3CC2C(=O)NO)cc1 (single isomer, unassigned; (+)) [the compound(30), (+)-N-Hydroxy-6-(4-ethoxycarbonylmethoxy-benzenesulfonyl)-5,6,7,8-tetrahydropyrido[3,4-b]pyrazine-7-carboxamide] | – |
| 300 nM | O=C(NO)C1Cc2nccnc2CN1S(=O)(=O)c1ccc(O)cc1 (single isomer, unassigned; (+)) [the compound(41), (+)-N-Hydroxy-6-(4-hydroxybenzenesulfonyl)-5,6,7,8-tetrahydropyrido[3,4-b]pyrazine-7-carboxamide] | – |
| 1900 nM | CCCc1ccc(S(=O)(=O)N2Cc3nccnc3CC2C(=O)NO)cc1 (single isomer, unassigned; (+)) [the compound(43), (+)-N-Hydroxy-6-(4-propylbenzenesulfonyl)-5,6,7,8-tetrahydropyrido[3,4-b]pyrazine-7-carboxamide] | – |
| 1100 nM | Nc1ccc(Oc2ccc(S(=O)(=O)N3Cc4nccnc4CC3C(=O)NO)cc2)cc1 (racemic) [the compound(6), (±)-N-Hydroxy-6-[4-(4-aminophenoxy)benzenesulfonyl]-5,6,7,8-tetrahydropyrido[3,4-b]pyrazine-7-carboxamide] | – |
| 3600 nM | CC(C)COc1ccc(S(=O)(=O)N2Cc3nccnc3CC2C(=O)NO)cc1 (single isomer, unassigned; (+)) [the compound(22), (+)-N-Hydroxy-6-(4-isobuthoxybenzenesulfonyl)-5,6,7,8-tetrahydropyrido[3,4-b]pyrazine-7-carboxamide] | – |

| SMILES | IC50 (read-out: IC50) | IC50 |
| --- | --- | --- |
| COCCCCOc1ccc(S(=O)(=O)N2Cc3nccnc3CC2C(=O)NO)cc1 (racemic) [the compound(11), (±)-N-Hydroxy-6-[4-(methoxybutoxy)benzenesulfonyl]-5,6,7,8-tetrahydropyrido[3,4-b]pyrazine-7-carboxamide] | 1400 nM | – |
